In patent publication US20250161476A1 (REGENERON PHARMACEUTICALS, INC., priority 2020, published 2025):
*1 amine or outer side, *2 acyl side, *3 side chain or, on linkers, in order; H or OH if unused. Where a SMILES comes first, the peptide text is derived from it. Side-chain parts run from the residue outwards. [ ]: non-standard residue; d: D form. The star is where a group is joined. PEG24 = NCCOCCOCCOCCOCCOCCOCCOCCOCCOCCOCCOCCOCCOCCOCCOCCOCCOCCOCCOCCOCCOCCOCCOCCOCCC(=O)O; Bip(2'-Et-4'-O(CH2)4NH2) = CCc1cc(OCCCCN[*:3])ccc1-c1ccc(C[C@H](N[*:1])C(=O)[*:2])cc1; Bip(2'-Et,4'-O(CH2)4N3) = CCc1cc(OCCCCN=[N+]=[N-])ccc1-c1ccc(C[C@H](N)C(=O)O)cc1; Bip(2'-Et,4'-O(CH2)4NH2) = CCc1cc(OCCCCN)ccc1-c1ccc(C[C@H](N)C(=O)O)cc1; Malonyl(2,2-Me2,histaminyl) = CC(C)(C(=O)NCCc1cnc[nH]1)C(=O)*; Nva(5-(3,5-Me2Ph)) = Cc1cc(C)cc(CCC[C@H](N)C(=O)O)c1; Ala(1H-tetrazol-5-yl) = N[C@@H](Cc1nnn[nH]1)C(=O)O; X5 = C[C@]1(C(=O)*)CCN(CCc2cnc[nH]2)C1=O; αMePhe(2-F) = C[C@](N)(Cc1ccccc1F)C(=O)O; DBCO = C1#Cc2ccccc2N(*)Cc2ccccc21; Suc = O=C(CCC(=O)[*:2])[*:1]; X3 = CC(C)(C(=O)*)c1ccn[nH]1; X2 = CC(C)(C(N)=O)C(=O)*; X4 = CC(C)(C(=O)O)C(=O)*; Aib = CC(C)(N)C(=O)O

Assays:
HEK293/CRE-Luc cells = test: cAMP responsive luciferase reporter assay, HEK293/CRE-Luc cells (no hGLP1R expression); assay type: cell-based, human
Text: (§1) To test the activity of GLP1R agonist payloads, GLP1R agonist linker-payloads (LPs), and anti-GLP1R antibody tethered drug conjugates (ATDCs) of the disclosure, a cell-based cAMP responsive luciferase reporter assay was developed. To generate the assay cell line, the firefly luciferase gene was placed under the control of a cAMP response element (CRE) located upstream of a minimal promoter and transfected into HEK293 cells and referred to herein as HEK293/CRE-Luc cells.
(§2) Three-fold serial dilutions of free payloads or LPs were prepared in 100% DMSO, transferred to fresh assay media, and added to the cells at a final constant DMSO concentration of 0.2%. The last well in the plate served as a blank control containing only the assay media and 0.2% DMSO (untreated well) and was plotted as a continuation of the 3-fold serial dilution. Four to six hours later, luciferase activity was determined after the addition of One-Glo™ reagent (Promega, Cat #E6130) to each well. Relative light units (RLUs) were measured on an Envision luminometer (PerkinElmer) and EC50 values were determined using a four-parameter logistic equation over a 12-point dose response curve (GraphPad Prism). The signal to noise (S/N) was determined by taking the ratio of the highest RLU on the dose response curve to the RLU in the untreated wells.

human GLP1R = human GLP1R (Homo sapiens (Human), UniProt P43220); test: cAMP responsive luciferase reporter assay, HEK293/CRE-Luc/hGLP1R cells; assay type: cell-based; conditions: for HEK293/CRE-LUC/hGLP1R S/N: highest RLU / RLU of untreated wells; for HEK293/CRE-LUC/hGLP1R Relative Potency (% P8 EC50) / HEK293/CRE-LUC/hGLP1R Relative Signal:Noise (% P8): relative to P8 of the same experiment
human GLP1R, sequence (P43220 24-463): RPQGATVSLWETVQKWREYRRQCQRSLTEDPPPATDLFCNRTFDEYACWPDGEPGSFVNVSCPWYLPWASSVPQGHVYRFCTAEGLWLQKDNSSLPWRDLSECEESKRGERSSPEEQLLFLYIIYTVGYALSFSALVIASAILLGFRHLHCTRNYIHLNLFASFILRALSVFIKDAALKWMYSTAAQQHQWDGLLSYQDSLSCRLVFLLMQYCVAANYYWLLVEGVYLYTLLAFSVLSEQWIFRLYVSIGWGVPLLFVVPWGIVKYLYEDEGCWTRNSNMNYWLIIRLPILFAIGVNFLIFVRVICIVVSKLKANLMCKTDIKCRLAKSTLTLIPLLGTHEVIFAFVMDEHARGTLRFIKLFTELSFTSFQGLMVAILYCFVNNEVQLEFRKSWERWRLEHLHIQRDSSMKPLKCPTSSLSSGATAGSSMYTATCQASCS
Text: as §1, §2
GLP1R agonist linker payloads were conjugated to anti-hGLP1R antibodies via N-terminal heavy or light chain Q tags. Several resulting anti-GLP1R antibody tethered drug conjugates (ATDCs) were tested for activity in the HEK293/CRE-Luc/hGLP1R reporter assay as described above for the free GLP1R payload and linker-payload agonists.

[1] = Plasma stability of payloads and linker-payloads, human plasma; assay type: in vitro ADME; conditions: for half-life at 2 µM: human, pooled plasma, pH 7.4, payload properties table, species not given, read-out: Plasma stability t½ (converted)
Method: The plasma stability of payloads and linker payloads of the disclosure were measured. For the assay, pooled frozen plasma (human, mouse or monkey) was thawed in cold water or a 37° C. water bath prior to experiment. Plasma was centrifuged at 4000 rpm for 5 min if any clots were observed, they were subsequently removed. If required, the pH was adjusted to 7.4±0.1. For the preparation of compounds and positive controls, a 1 mM intermediate solution was prepared by diluting 10 μL of their stock solution with 90 μL DMSO; a 1 mM intermediate solution of the positive control (Propantheline) was prepared by diluting 10 μL of its stock solution with 90 μL ultrapure water. […] 98 μL of plasma was spiked with 2 μL of dosing solution (100 μM) to achieve the final concentration of 2 μM in duplicate. Samples were then incubated at 37° C. in a water bath. […] At each time point, 400 μL of stop solution (200 ng/mL tolbutamide plus 200 ng/mL labetalol in 50% ACN/MeOH) was added to precipitate protein and mixed thoroughly. Sample plates were then centrifuged at 4,000 rpm for 10 min. An aliquot of supernatant (50 μL) was transferred from each well and mixed with 100 μL ultra-pure water. The samples were then shaken at 800 rpm for approximately 10 min before submitting for LC-MS/MS analysis.

Compound	HEK293/CRE-LUC S/N (HEK293/CRE-Luc cells)	HEK293/CRE-Luc S/N (HEK293/CRE-Luc cells; ATDCs, Table 12)	HEK293/CRE-LUC/hGLP1R S/N (human GLP1R)	HEK293/CRE-LUC/hGLP1R Relative Potency (% P8 EC50) (human GLP1R) [%]	HEK293/CRE-LUC/hGLP1R Relative Signal:Noise (% P8) (human GLP1R) [%]	EC50 (HEK293/CRE-Luc cells) [nM]	Human plasma stability assay T½ ([1]; tested for 2 hrs (B)) [h]	half-life at 2 µM [1] [h]	Human plasma stability assay T½ ([1]; tested for 1 day (A)) [h]
CC[C@H](C)[C@H](NC(=O)[C@H](Cc1ccccc1)NC(=O)[C@H](CCC(=O)O)NC(=O)[C@H](CCCCN)NC(=O)[C@H](C)NC(=O)[C@H](C)NC(=O)[C@H](CCC(N)=O)NC(=O)CNC(=O)[C@H](CCC(=O)O)NC(=O)[C@H](CC(C)C)NC(=O)[C@H](Cc1ccc(O)cc1)NC(=O)[C@H](CO)NC(=O)[C@H](CO)NC(=O)[C@@H](NC(=O)[C@H](CC(=O)O)NC(=O)[C@H](CO)NC(=O)[C@@H](NC(=O)[C@H](Cc1ccccc1)NC(=O)[C@@H](NC(=O)CNC(=O)[C@H](CCC(=O)O)NC(=O)[C@H](C)NC(=O)[C@@H](N)Cc1c[nH]cn1)[C@@H](C)O)[C@@H](C)O)C(C)C)C(=O)N[C@@H](C)C(=O)N[C@@H](Cc1c[nH]c2ccccc12)C(=O)N[C@@H](CC(C)C)C(=O)N[C@H](C(=O)N[C@@H](CCCCN)C(=O)NCC(=O)N[C@@H](CCCNC(=N)N)C(N)=O)C(C)C [GLP1, Glucagon-like peptide 1, reference compound]	1.3	1.4	–	–	–	–	–	–	–
CCc1cc(OCCCCNC(=O)CCOCCOCCOCCOCCOCCOCCOCCOCCOCCOCCOCCOCCOCCOCCOCCOCCOCCOCCOCCOCCOCCOCCOCCOCCNC(=O)CCC(=O)N2Cc3ccccc3C#Cc3ccccc32)ccc1-c1ccc(C[C@H](NC(=O)[C@H](CC(=O)O)NC(=O)[C@H](CO)NC(=O)[C@@H](NC(=O)[C@](C)(Cc2ccccc2F)NC(=O)[C@@H](NC(=O)CNC(=O)[C@H](Cc2nn[nH]n2)NC(=O)C(C)(C)C(=O)NCCc2cnc[nH]2)[C@@H](C)O)[C@@H](C)O)C(=O)N[C@@H](CCCc2cc(C)cc(C)c2)C(N)=O)cc1 [LP4, DIBAC-suc-PEG24-P9] ({Malonyl(2,2-Me2,histaminyl)}-[Ala(1H-tetrazol-5-yl)]GT[αMePhe(2-F)]TSD[Bip(2'-Et-4'-O(CH2)4NH2)]([PEG24-Suc-DBCO])[Nva(5-(3,5-Me2Ph))]-NH2)	1.7	–	63.8	4.2	97.1	> 200	–	–	–
CCc1cc(OCCCCN)ccc1-c1ccc(C[C@H](NC(=O)[C@H](CC(=O)O)NC(=O)[C@H](CO)NC(=O)[C@@H](NC(=O)[C@](C)(Cc2ccccc2F)NC(=O)[C@@H](NC(=O)CNC(=O)[C@@H](N)Cc2nn[nH]n2)[C@@H](C)O)[C@@H](C)O)C(=O)N[C@@H](CCCc2cc(C)cc(C)c2)C(N)=O)cc1 [P2]	–	–	–	–	–	–	10.74	10.7	–
CCc1cc(OCCCCN)ccc1-c1ccc(C[C@H](NC(=O)[C@H](CC(=O)O)NC(=O)[C@H](CO)NC(=O)[C@@H](NC(=O)[C@](C)(Cc2ccccc2F)NC(=O)[C@@H](NC(=O)CNC(=O)[C@H](Cc2nn[nH]n2)NC(=O)C(C)(C)C(=O)O)[C@@H](C)O)[C@@H](C)O)C(=O)N[C@@H](CCCc2cc(C)cc(C)c2)C(N)=O)cc1 [P3] (X4-[Ala(1H-tetrazol-5-yl)]GT[αMePhe(2-F)]TSD[Bip(2'-Et,4'-O(CH2)4NH2)][Nva(5-(3,5-Me2Ph))]-NH2)	1.2	–	46.3	0.3	70.3	> 200	–	> 57.8	>57.81
CCc1cc(OCCCCN)ccc1-c1ccc(C[C@H](NC(=O)[C@H](CC(=O)O)NC(=O)[C@H](CO)NC(=O)[C@@H](NC(=O)[C@](C)(Cc2ccccc2F)NC(=O)[C@@H](NC(=O)CNC(=O)[C@H](Cc2nn[nH]n2)NC(=O)C(C)(C)C(N)=O)[C@@H](C)O)[C@@H](C)O)C(=O)N[C@@H](CCCc2cc(C)cc(C)c2)C(N)=O)cc1 [P4] (X2-[Ala(1H-tetrazol-5-yl)]GT[αMePhe(2-F)]TSD[Bip(2'-Et,4'-O(CH2)4NH2)][Nva(5-(3,5-Me2Ph))]-NH2)	1.6	–	66.9	6.3	101.8	> 200	–	> 57.8	>57.81
CCc1cc(OCCCCN)ccc1-c1ccc(C[C@H](NC(=O)[C@H](CC(=O)O)NC(=O)[C@H](CO)NC(=O)[C@@H](NC(=O)[C@](C)(Cc2ccccc2F)NC(=O)[C@@H](NC(=O)CNC(=O)[C@H](Cc2nn[nH]n2)NC(=O)C(C)(C)c2ccn[nH]2)[C@@H](C)O)[C@@H](C)O)C(=O)N[C@@H](CCCc2cc(C)cc(C)c2)C(N)=O)cc1 [P6] (X3-[Ala(1H-tetrazol-5-yl)]GT[αMePhe(2-F)]TSD[Bip(2'-Et,4'-O(CH2)4NH2)][Nva(5-(3,5-Me2Ph))]-NH2)	1.0	–	60.7	0.9	92.3	> 200	–	> 57.8	>57.81
CCc1cc(OCCCCN)ccc1-c1ccc(C[C@H](NC(=O)[C@H](CC(=O)O)NC(=O)[C@H](CO)NC(=O)[C@@H](NC(=O)[C@](C)(Cc2ccccc2F)NC(=O)[C@@H](NC(=O)CNC(=O)[C@H](Cc2nn[nH]n2)NC(=O)C(C)(C)C(=O)NCCc2cnc[nH]2)[C@@H](C)O)[C@@H](C)O)C(=O)N[C@@H](CCCc2cc(C)cc(C)c2)C(N)=O)cc1 [P9, (8S,14S,17S,20S,23S,26S)-8-((2H-tetrazol-5-yl)methyl)-26-(((S)-1-(((S)-1-amino-5-(3,5-dimethylphenyl)-1-oxopentan-2-yl)amino)-3-(4′-(4-aminobutoxy)-2′-ethyl-[1,1′-biphenyl]-4-yl)-1-oxopropan-2-yl)carbamoyl)-17-(2-fluorobenzyl)-14,20-bis((R)-1-hydroxyethyl)-23-(hydroxymethyl)-1-(1H-imidazol-5-yl)-5,5,17-trimethyl-4,6,9,12,15,18,21,24-octaoxo-3,7,10,13, 16,19,22,25-octaazaoctacosan-28-oic acid] ({Malonyl(2,2-Me2,histaminyl)}-[Ala(1H-tetrazol-5-yl)]GT[αMePhe(2-F)]TSD[Bip(2'-Et,4'-O(CH2)4NH2)][Nva(5-(3,5-Me2Ph))]-NH2)	1.3	–	75.2	133.8	114.3	> 200	–	> 57.8	>57.81
CCc1cc(OCCCCN)ccc1-c1ccc(C[C@H](NC(=O)[C@H](CC(=O)O)NC(=O)[C@H](CO)NC(=O)[C@@H](NC(=O)[C@](C)(Cc2ccccc2F)NC(=O)[C@@H](NC(=O)CNC(=O)[C@H](Cc2nn[nH]n2)NC(=O)[C@@]2(C)CCN(CCc3cnc[nH]3)C2=O)[C@@H](C)O)[C@@H](C)O)C(=O)N[C@@H](CCCc2cc(C)cc(C)c2)C(N)=O)cc1 [P15-R] (X5-[Ala(1H-tetrazol-5-yl)]GT[αMePhe(2-F)]TSD[Bip(2'-Et,4'-O(CH2)4NH2)][Nva(5-(3,5-Me2Ph))]-NH2)	1.1	–	67.8	40.3	103.1	> 200	–	–	–
CCc1cc(OCCCCN)ccc1-c1ccc(C[C@H](NC(=O)[C@H](CC(=O)O)NC(=O)[C@H](CO)NC(=O)[C@@H](NC(=O)[C@](C)(Cc2ccccc2F)NC(=O)[C@@H](NC(=O)CNC(=O)[C@H](Cc2nn[nH]n2)NC(=O)C(C)(C)NC(=O)[C@@H](N)Cc2ccc(O)cc2)[C@@H](C)O)[C@@H](C)O)C(=O)N[C@@H](CCCc2cc(C)cc(C)c2)C(N)=O)cc1 [P19] (H-Y[Aib][Ala(1H-tetrazol-5-yl)]GT[αMePhe(2-F)]TSD[Bip(2'-Et,4'-O(CH2)4NH2)][Nva(5-(3,5-Me2Ph))]-NH2)	–	–	–	–	–	–	–	> 57.8	>57.81
CCc1cc(OCCCCN=[N+]=[N-])ccc1-c1ccc(C[C@H](NC(=O)[C@H](CC(=O)O)NC(=O)[C@H](CO)NC(=O)[C@@H](NC(=O)[C@](C)(Cc2ccccc2F)NC(=O)[C@@H](NC(=O)CNC(=O)[C@H](Cc2nn[nH]n2)NC(=O)C(C)(C)C(=O)NCCc2cnc[nH]2)[C@@H](C)O)[C@@H](C)O)C(=O)N[C@@H](CCCc2cc(C)cc(C)c2)C(=O)O)cc1 [P41] ({Malonyl(2,2-Me2,histaminyl)}-[Ala(1H-tetrazol-5-yl)]GT[αMePhe(2-F)]TSD[Bip(2'-Et,4'-O(CH2)4N3)][Nva(5-(3,5-Me2Ph))]-OH)	–	–	–	–	–	–	–	–	>57.81
